This test concerns mice with hyperuricemia. Nature of the test: Effect on serum uric acid (UA) levels in mice with hyperuricemia. Format: in vivo. Conditions: 0.02 g/kg orally once a day, 7 days; hypoxanthine + potassium oxonate model; model group 768.30, blank 145.80. The source says: 60 mice (each mouse with a weight of (20±2) g) are taken and randomly divided into 6 groups, with 10 mice in each group, denoted as a blank group, a model group, a benzbromarone group, a high dose traditional Chinese medicine fermented preparation group, a medium dose traditional Chinese medicine fermented preparation group, and a low dose traditional Chinese medicine fermented preparation group. After 5 days of adaptive breeding, except for the blank group (injected with an equal volume of physiological saline), the mice in other groups are injected intraperitoneally with 0.3 g/kg/mouse of hypoxanthine +0.05 g/kg/mouse of potassium oxonate (i.e., oxonic acid potassium salt) daily for model replication, for 7 consecutive days. At the same time, the mice in the benzbromarone group are administered orally at a dose of 0.02 g/kg/mouse once a day, the mice in the high, medium and low dose traditional Chinese medicine fermented preparation groups are administered orally at a dose of 2 mL/kg/mouse, 1 mL/kg/mouse, and 0.5 mL/kg/mouse once, respectively, while the mice in the blank group and the model group are given physiological saline (1 mL/kg) orally, for 7 consecutive days. After 7 days, tail vein blood is collected from the mice in all groups, and then centrifuged to separate […] to obtain serum, the serum is taken to measure serum UA levels.

Here are results for one compound from US20240415915A1, “TRADITIONAL CHINESE MEDICINE FERMENTED PREPARATION FOR PREVENTING AND TREATING GOUT, ITS PREPARATION METHOD AND APPLICATION” (priority 2023, published 2024).

Take `CCc1oc2ccccc2c1C(=O)c1cc(Br)c(O)c(Br)c1` [Benzbromarone, benzbromarone]: the “Serum UA level” value came out at 302.30 µmol/L.
